One block for each molecule: values may come before it. Calls of active or inactive are those of the source.
Assays:
SUMO-activating enzyme = SUMO-activating enzyme (Homo sapiens, UniProt Q9UBT2); assay: blockers of UBC9-mediated SUMO conjugation – biochemical, AlphaScreen, SUMOylation inhibitor project, confirmation (AID 2018); type: functional
Caspase-9 = Caspase-9 (Homo sapiens, UniProt P55211); assay: inhibitors of purified CASP9 protease – biochemical, fluorescence, plate reader, cherry-picked samples, selectivity assay for caspase-6 inhibitor project, dose response (AID 743293)
[1] = target: Luciferin 4-monooxygenase (Photinus pyralis, UniProt P08659); assay: inhibition of purified Photinus pyralis luciferase – biochemical, luminescence, dose response (AID 1891)
Caspase-3 = target: T1, Caspase-3 (Homo sapiens, UniProt P42574); assay: human caspase-3 protease activity blockade – biochemical, fluorescence, cherry-picked samples, selectivity assay for caspase-6 allosteric inhibitor project, dose response (AID 743291)
T1 sequence (P42574 whole entry): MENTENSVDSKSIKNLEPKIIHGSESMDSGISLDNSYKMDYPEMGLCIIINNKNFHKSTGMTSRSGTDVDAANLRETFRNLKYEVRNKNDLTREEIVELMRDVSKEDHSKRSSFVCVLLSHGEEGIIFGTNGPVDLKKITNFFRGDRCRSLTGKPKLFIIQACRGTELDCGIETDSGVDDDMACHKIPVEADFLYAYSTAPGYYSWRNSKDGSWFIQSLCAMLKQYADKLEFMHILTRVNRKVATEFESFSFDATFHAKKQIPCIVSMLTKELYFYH

Hexokinase HKDC1 = target: T2, Hexokinase HKDC1 (Homo sapiens, UniProt Q2TB90); assay: inhibition of HKDC1 glucose phosphorylation – biochemical, W721R variant, dose response (AID 504729); type: functional
T2 sequence (Q2TB90 whole entry): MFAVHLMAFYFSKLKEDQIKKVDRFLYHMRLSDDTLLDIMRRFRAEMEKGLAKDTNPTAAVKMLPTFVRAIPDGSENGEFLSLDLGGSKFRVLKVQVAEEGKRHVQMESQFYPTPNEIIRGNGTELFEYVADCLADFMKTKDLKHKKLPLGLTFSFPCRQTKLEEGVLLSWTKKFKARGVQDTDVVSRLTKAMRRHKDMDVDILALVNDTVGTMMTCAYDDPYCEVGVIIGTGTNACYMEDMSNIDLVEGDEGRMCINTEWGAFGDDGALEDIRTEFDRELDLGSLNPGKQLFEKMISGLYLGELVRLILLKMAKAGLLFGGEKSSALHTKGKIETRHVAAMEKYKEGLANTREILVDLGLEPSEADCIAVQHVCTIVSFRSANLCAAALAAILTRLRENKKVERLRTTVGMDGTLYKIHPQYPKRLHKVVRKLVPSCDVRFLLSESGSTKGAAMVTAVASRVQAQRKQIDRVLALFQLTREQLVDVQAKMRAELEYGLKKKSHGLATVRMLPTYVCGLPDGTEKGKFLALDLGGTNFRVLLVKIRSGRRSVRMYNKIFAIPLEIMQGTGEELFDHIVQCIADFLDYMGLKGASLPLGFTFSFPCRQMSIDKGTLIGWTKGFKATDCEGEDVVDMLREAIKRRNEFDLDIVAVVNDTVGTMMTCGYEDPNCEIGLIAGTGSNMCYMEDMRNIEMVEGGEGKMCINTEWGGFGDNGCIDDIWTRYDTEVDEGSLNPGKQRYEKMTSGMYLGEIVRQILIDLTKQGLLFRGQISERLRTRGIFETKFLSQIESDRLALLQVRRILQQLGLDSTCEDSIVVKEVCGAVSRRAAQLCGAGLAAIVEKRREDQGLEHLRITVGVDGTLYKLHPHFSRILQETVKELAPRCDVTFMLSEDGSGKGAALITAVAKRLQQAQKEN

[2] = target: Glycogen synthase kinase-3 alpha (Homo sapiens, UniProt P49840); type: functional;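 also: GSK3A result taken from a broad kinome-wide kinase panel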
[3] = target: Insulin-like growth factor 1 receptor (Homo sapiens, UniProt P08069); assay: Navigating the Kinome. Panel member name: IGF1R; type: functional
[4] = target: High affinity nerve growth factor receptor (Homo sapiens, UniProt P04629); type: functional;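 also: NTRK1 tested as one member of a kinome-wide profiling panel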
[5] = target: Ribosomal protein S6 kinase alpha-3 (Homo sapiens, UniProt P51812); type: functional;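 also: measured within a kinome-wide profiling panel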
[6] = target: Serine/threonine-protein kinase N2 (Homo sapiens, UniProt Q16513); type: functional
[7] = target: Proto-oncogene tyrosine-protein kinase Src (Homo sapiens, UniProt P12931); type: functional;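 also: SRC entry within a kinome-wide kinase profiling panel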
[8] = target: Homeodomain-interacting protein kinase 2 (Homo sapiens, UniProt Q9H2X6); type: functional;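 also: measured within a kinome-wide kinase profiling panel, HIPK2 being one panel member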
[9] = target: 5'-AMP-activated protein kinase catalytic subunit alpha-1 (Homo sapiens, UniProt Q13131); type: functional
[10] = target: Macrophage colony-stimulating factor 1 receptor (Homo sapiens, UniProt P07333); type: functional;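 also: value comes from the Navigating the Kinome screening panel, CSF1R member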
[11] = target: Casein kinase II subunit alpha (Homo sapiens, UniProt P68400); type: functional
[12] = target: Protein-tyrosine kinase 6 (Homo sapiens, UniProt Q13882); type: functional
Sequence of Protein-tyrosine kinase 6 (Q13882 whole entry): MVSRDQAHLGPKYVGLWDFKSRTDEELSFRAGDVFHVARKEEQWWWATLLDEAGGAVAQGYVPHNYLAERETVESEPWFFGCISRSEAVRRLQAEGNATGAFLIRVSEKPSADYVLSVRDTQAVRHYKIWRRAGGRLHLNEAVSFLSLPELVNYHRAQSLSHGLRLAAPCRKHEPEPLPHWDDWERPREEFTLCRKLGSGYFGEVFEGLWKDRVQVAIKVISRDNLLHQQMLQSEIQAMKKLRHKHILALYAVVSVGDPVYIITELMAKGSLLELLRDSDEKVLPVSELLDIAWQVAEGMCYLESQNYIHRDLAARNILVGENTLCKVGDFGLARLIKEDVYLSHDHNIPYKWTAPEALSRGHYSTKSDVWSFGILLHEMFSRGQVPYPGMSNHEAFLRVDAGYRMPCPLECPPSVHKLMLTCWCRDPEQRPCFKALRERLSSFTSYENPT

Sequence of High affinity nerve growth factor receptor (P04629 whole entry): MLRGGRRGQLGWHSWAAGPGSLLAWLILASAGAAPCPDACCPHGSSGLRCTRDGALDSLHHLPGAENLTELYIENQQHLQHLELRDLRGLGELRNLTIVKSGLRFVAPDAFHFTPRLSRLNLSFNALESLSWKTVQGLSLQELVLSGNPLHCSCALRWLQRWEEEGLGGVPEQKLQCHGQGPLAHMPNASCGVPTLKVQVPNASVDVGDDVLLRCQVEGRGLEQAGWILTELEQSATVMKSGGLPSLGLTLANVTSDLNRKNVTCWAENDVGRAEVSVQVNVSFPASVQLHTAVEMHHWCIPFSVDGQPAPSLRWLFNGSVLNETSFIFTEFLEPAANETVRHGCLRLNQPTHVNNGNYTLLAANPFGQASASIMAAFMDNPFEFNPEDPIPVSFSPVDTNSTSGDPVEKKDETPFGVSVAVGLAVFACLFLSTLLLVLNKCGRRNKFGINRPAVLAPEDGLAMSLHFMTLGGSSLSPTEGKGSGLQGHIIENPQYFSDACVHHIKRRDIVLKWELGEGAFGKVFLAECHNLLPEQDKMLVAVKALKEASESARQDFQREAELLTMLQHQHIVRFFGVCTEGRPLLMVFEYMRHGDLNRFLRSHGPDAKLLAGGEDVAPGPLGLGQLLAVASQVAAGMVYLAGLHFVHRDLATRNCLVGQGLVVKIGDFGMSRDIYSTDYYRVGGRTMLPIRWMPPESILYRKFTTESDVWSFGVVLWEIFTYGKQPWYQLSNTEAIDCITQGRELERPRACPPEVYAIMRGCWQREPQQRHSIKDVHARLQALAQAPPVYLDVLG
Sequence of Caspase-9 (P55211 1-315 limits assumed): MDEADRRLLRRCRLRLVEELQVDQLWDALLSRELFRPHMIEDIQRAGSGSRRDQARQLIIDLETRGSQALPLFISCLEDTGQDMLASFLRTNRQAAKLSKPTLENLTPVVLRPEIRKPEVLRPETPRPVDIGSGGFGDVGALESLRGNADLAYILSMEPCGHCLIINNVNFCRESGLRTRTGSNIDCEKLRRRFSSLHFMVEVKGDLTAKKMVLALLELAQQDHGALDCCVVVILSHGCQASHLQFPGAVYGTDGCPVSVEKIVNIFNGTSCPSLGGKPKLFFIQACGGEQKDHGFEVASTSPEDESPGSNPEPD
Sequence of Caspase-9 (P55211 331-416 limits assumed): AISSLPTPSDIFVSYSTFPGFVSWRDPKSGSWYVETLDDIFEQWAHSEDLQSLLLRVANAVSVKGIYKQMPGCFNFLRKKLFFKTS
Sequence of Homeodomain-interacting protein kinase 2 (Q9H2X6 whole entry): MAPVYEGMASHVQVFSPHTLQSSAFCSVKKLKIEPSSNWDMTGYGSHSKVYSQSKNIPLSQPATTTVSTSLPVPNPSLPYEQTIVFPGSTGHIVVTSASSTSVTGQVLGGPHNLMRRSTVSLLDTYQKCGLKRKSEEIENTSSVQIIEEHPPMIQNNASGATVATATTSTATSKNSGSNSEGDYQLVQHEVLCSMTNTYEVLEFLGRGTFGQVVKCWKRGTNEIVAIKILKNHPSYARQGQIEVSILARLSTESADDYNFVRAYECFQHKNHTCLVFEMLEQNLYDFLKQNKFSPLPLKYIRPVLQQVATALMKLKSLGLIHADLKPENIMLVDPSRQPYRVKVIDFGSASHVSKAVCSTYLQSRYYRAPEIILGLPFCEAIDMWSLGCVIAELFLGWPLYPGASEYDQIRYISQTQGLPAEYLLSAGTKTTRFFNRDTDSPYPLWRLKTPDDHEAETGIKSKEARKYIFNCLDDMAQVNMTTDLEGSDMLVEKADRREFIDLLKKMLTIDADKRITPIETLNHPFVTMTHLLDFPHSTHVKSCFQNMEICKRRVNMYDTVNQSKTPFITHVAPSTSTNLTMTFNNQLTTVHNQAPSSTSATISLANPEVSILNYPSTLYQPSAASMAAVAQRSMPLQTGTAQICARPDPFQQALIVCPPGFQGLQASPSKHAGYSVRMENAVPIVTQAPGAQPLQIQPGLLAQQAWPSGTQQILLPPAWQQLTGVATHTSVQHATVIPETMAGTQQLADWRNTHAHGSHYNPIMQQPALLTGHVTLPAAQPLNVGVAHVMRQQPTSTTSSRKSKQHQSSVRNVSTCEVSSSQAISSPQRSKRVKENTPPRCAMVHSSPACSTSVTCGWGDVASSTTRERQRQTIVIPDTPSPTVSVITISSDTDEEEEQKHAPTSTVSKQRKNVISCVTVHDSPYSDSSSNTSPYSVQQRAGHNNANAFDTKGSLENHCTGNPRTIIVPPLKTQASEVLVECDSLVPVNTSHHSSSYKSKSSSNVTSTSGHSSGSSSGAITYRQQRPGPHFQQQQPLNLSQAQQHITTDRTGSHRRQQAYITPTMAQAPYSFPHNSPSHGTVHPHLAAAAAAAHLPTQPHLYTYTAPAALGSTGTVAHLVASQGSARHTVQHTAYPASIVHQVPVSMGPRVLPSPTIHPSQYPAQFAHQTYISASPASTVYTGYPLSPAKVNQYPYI
Sequence of Luciferin 4-monooxygenase (P08659 whole entry): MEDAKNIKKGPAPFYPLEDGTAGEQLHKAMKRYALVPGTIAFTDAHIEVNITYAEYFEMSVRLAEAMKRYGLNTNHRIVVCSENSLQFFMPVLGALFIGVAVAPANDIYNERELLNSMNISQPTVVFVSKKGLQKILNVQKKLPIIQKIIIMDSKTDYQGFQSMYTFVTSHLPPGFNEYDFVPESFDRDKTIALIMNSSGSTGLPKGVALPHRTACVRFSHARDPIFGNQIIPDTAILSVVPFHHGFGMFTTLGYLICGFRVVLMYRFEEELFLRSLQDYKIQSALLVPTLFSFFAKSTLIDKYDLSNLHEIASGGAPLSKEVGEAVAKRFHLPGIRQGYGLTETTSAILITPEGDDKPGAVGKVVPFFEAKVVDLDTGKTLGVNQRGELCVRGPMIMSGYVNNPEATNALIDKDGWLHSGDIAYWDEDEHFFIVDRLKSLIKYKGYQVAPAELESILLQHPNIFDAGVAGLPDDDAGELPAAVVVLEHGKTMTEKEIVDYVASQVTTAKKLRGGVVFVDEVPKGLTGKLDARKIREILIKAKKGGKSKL
Sequence of Casein kinase II subunit alpha (P68400 whole entry): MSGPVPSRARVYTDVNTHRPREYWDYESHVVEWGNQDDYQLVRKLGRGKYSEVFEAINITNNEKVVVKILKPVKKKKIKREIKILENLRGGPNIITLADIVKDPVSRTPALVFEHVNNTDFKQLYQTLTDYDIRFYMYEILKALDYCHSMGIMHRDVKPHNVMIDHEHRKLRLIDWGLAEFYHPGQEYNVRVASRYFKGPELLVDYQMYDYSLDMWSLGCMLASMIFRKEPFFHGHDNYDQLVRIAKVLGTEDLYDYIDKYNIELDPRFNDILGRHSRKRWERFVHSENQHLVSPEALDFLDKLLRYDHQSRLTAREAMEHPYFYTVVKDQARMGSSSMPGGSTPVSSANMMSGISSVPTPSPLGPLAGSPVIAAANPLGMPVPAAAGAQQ
Sequence of Glycogen synthase kinase-3 alpha (P49840 whole entry): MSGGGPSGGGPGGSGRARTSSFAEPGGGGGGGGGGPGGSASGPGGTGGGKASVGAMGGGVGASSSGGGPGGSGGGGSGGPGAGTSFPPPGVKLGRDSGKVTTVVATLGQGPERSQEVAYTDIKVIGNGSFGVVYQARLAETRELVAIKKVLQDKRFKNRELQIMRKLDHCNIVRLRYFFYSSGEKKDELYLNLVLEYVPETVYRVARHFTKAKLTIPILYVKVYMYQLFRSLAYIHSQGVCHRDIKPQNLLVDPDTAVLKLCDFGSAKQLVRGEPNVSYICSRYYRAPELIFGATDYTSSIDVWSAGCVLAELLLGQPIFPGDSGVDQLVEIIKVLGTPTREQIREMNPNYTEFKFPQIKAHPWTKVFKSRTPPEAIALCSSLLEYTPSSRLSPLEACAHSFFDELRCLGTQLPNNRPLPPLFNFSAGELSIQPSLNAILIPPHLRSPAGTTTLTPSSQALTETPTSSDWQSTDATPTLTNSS
Sequence of Ribosomal protein S6 kinase alpha-3 (P51812 whole entry): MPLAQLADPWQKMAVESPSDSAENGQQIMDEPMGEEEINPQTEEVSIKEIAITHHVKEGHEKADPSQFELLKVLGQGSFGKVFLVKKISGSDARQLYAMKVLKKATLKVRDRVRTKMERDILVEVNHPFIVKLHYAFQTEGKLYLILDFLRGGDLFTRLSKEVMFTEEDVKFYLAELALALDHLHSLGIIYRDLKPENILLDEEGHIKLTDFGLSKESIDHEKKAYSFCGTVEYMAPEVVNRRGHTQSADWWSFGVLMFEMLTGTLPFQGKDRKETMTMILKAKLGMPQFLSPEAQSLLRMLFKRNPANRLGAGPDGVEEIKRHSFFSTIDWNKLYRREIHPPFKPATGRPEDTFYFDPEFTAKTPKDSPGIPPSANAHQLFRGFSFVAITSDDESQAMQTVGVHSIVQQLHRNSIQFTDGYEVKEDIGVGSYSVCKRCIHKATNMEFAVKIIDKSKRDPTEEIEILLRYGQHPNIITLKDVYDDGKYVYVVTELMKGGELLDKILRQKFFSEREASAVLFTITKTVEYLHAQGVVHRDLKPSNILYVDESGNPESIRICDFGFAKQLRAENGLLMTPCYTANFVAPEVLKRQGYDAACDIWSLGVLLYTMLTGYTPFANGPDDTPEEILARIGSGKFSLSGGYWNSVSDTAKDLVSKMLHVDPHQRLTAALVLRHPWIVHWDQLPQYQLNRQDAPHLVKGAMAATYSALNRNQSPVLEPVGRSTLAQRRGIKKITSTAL

SMILES: Cc1ccc(C(=O)NC2(O)C(=O)c3ccccc3C2=O)cc1C
IC50 (SUMO-activating enzyme): 0.87 µM (active)

SMILES: O=[N+]([O-])c1c(Nc2ccccn2)cc(Cl)c2nonc12
AC50 (Caspase-9): 17.4 µM (active)
EC50 [1]: > 112 µM (not active)
AC50 (Caspase-3): 7.84 µM (active)

SMILES: Cc1ccc(S(=O)(=O)/N=C2\C=C(Nc3cccc(C(=O)O)c3)C(=O)c3ccccc32)cc1
IC50 (Hexokinase HKDC1): 4.31 µM (active)

Ki [2]: > 7.94 µM (inactive)
Ki [3]: > 2 µM (inactive)
Ki [4]: > 2.51 µM (inactive)
Ki [5]: > 7.94 µM (inactive)
Ki [6]: > 7.94 µM (inactive)
Ki [7]: > 2 µM (inactive)
Ki [8]: > 3.16 µM (inactive)
Ki [9]: > 6.31 µM (inactive)
Ki [10]: > 2.51 µM (inactive)
Ki [11]: > 6.31 µM (inactive)
Ki [12]: > 2.51 µM (inactive)
SMILES: CC(C)(CO)CNc1nccc(-c2c(-c3ccc(F)cc3)nc3c(CC4CC4)nccn23)n1

From ChEMBL document CHEMBL1201862, “PubChem BioAssay data set” (2004)
